Each block holds one compound with its values, some of them ahead of it. Where a SMILES comes first, the peptide text is derived from it. Bridges are numbered along the chain shown (N, C = ends).
Tests used:
human SSTR2 = biological target: T1, human SSTR2 (Homo sapiens, UniProt P30874); assay: cAMP accumulation inhibiting activity in SSTR2 expressing CHO cells (forskolin stimulated); format: cell-based; settings: forskolin 10 μM, CHO cells SSTR2-HS5-9; read-out: ED50, inhibition of intracellular cAMP accumulation, SSTR2
T1 construct: expressed in transfected cells; host or cells: CHO(dhfr-) cells, clone SSTR2-HS5-9, plasmid pAC01 (vector pAKKO-111)
T1 sequence (P30874 whole entry): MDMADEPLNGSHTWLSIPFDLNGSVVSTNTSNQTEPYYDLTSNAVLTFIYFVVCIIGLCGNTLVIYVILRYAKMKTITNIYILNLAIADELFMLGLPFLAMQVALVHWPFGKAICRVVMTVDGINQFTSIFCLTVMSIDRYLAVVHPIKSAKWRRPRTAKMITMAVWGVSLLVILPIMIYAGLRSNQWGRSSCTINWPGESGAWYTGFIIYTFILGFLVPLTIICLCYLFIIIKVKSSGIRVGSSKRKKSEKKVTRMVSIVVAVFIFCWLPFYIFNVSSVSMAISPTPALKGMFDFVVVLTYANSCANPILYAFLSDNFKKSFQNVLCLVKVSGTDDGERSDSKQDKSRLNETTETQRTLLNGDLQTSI
Protocol: For measuring the intracellular accumulations of cyclic adenosine 3′,5′-monophosphate (cAMP), the human somatostatin receptor expressing cell lines SSTR2-HS5-9, SSTR3-15-19, SSTR4-1-2 and SSTR5-32-4 respectively described in Reference Example 2 (3), Reference Example 3 (3), Reference Example 4 (3) and Reference Example 5 (3) were multiplied on 24-well plates until confluency. Said cells were washed with two 1-ml portions of medium A [Dulbecco-'s modified Eagle's medium (DMEM), 20 mM 2-[4-(2-hydroxyethyl)-1-piperazinyl]ethanesulfonic acid (HEPES) (pH. 7.5), 0.2% BSA, 0.2 mM 3-isobutyl-1-methylxanthine (IBMX)] and then 400 μl of medium A was added to each well and incubation was carried out at 37° C. for 1 hour. To each well were added 50 μl of a hCS-15 or hCS-17 solution (each diluted to a concentration 10 times the final concentration with medium A) and 50 μl of a forskolin solution (final concentration: 10 μM), and incubation was carried out at 37° C. for 30 minutes. The cells were washed with two 1-ml portions of medium A and then 500 μl of medium A and 100 μL of 20% aqueous perchloric acid solution were added to each well, followed by standing at 4° C. for 20 minutes for cell lysis. […] The amount of cAMP contained in this extract was determined using an Amersham's kit (cAMP EIA system).

rat electroencephalogram = assay: Effect on the rat electroencephalogram (sleep-wakefulness); format: in vivo
Protocol: Using male Jcl:Wistar rats (b. wt. 300˜350 g, approx.) under pentobarbital anesthesia (50 mg/kg, i.p.), the head was immobilized in a rat brain stereotaxic apparatus and the skull was drilled for placement of a screw electrode for cortical derivation and a stainless steel bipolar electrode for hippocampal derivation (A:−2.6, L:2.5, H:3.5, Pellegrino and Cushman Brain Atlas). A bipolar stainless steel needle electrode for recording an electromyogram was also inserted into the muscle layer in the dorsocervical region. All the electrodes were connected to a socket on the cranium and fixed with a dental cement. For administration of the test drug solution into the paracele, a 27-G stainless steel guide cannula was inserted in such a manner that the coordinates of its tip would be A:−0.4, L:1.7, H:1.7, and was fixed together with the EEG electrodes using a dental cement. A stilet was inserted into the guide cannula to prevent plugging of the cannula bore by tissue and blood. After postoperative recovery, the animal was submitted to the experiment. The rat was acclimatized to the experimental environment for at least 1 hour and either hCS-17 dissolved in phosphate buffered saline (PBS) or PBS was administered into the paracele via a 30-G infusion cannula. The electroencephalogram was recorded for 4 hours following administration of the test drug. The dose volume was 5 μl and the dose was 0.1 or 1 nmol. Control animals were similarly dosed with PBS.
The sleep-wakefulness was monitored by visual reading of the polygram and evaluated by frequency analysis and power analysis and classified into the following categories.
During this time, electromyographic activity is high.
(2) SWS1 (Shallow-and-Slow Wave Sleep) and SWS2 (Deep-and-Slow Wave Sleep):
The rat assumes a sleeping posture and delta waves (spindle waves) or high-amplitude, slow-waves appear in the cerebral cortex and high-amplitude, slow-waves, appear in the hippocampal derivation. During this period, electromyographic activity is decreased (SWS1) or absent (SWS2).
(3) PS (Paradoxical Sleep):
Alpha waves (low-amplitude, fast waves) appear in the cerebral cortex and theta waves (rhythmic waves) in the hippocampal derivation. During this period, electromyographic activity is absent.
Using 5˜6 rats per group, hCS-17 and PBS were respectively injected into the same rat to evaluate the relative effect on wakefulness. Analysis for statistical significance was made by paired t-test.

- EC50 (human SSTR2): 7 nM
SMILES: CSCC[C@H](N)C(=O)N1CCC[C@H]1C(=O)N[C@H]1CSSC[C@@H](C(=O)N[C@@H](CCCCN)C(=O)O)NC(=O)[C@H](CO)NC(=O)[C@H](CO)NC(=O)[C@H](Cc2ccccc2)NC(=O)[C@H]([C@@H](C)O)NC(=O)[C@H](CCCCN)NC(=O)[C@H](Cc2c[nH]c3ccccc23)NC(=O)[C@H](Cc2ccccc2)NC(=O)[C@H](Cc2ccccc2)NC(=O)[C@H](CC(N)=O)NC(=O)[C@H](CCCNC(=N)N)NC1=O [hCS-15] (H-MPCRNFFWKTFSSCK-OH; disulfide 3-14; N-terminus and C-terminus assumed)

SMILES: CSCC[C@H](NC(=O)[C@H](CCCNC(=N)N)NC(=O)[C@@H](N)CC(=O)O)C(=O)N1CCC[C@H]1C(=O)N[C@H]1CSSC[C@@H](C(=O)N[C@@H](CCCCN)C(=O)O)NC(=O)[C@H](CO)NC(=O)[C@H](CO)NC(=O)[C@H](Cc2ccccc2)NC(=O)[C@H]([C@@H](C)O)NC(=O)[C@H](CCCCN)NC(=O)[C@H](Cc2c[nH]c3ccccc23)NC(=O)[C@H](Cc2ccccc2)NC(=O)[C@H](Cc2ccccc2)NC(=O)[C@H](CC(N)=O)NC(=O)[C@H](CCCNC(=N)N)NC1=O [hCS-17]
- PS (paradoxical sleep) occupancy time vs PBS (rat electroencephalogram; 0.1 nmol into the paracele): significantly decreased
- SWS1 (shallow-and-slow wave sleep) occupancy time vs PBS (rat electroencephalogram; 0.1 nmol into the paracele): tendency toward decrease
- SWS2 (deep-and-slow wave sleep) occupancy time vs PBS (rat electroencephalogram; 0.1 nmol into the paracele): toward increase
- animals showing flattening of the EEG patterns (rat electroencephalogram; 0.1 nmol into the paracele): 2 out of 5
- wakefulness time (percent occupancy of 4 hour EEG recording) vs PBS (rat electroencephalogram; 0.1 nmol into the paracele): not different from the PBS control group
- PS (paradoxical sleep) occupancy time vs PBS (rat electroencephalogram; 1 nmol into the paracele): decrease
- SWS1 (shallow-and-slow wave sleep) occupancy time vs PBS (rat electroencephalogram; 1 nmol into the paracele): significant decrease
- SWS2 (deep-and-slow wave sleep) occupancy time vs PBS (rat electroencephalogram; 1 nmol into the paracele): increase
- animals showing flattening of the EEG patterns (rat electroencephalogram; 1 nmol into the paracele): 4 out of 6
- duration of flattening of cortical and hippocampal EEG patterns (rat electroencephalogram; immediately after administration into the paracele): 3˜5 minutes

Reference: patent publication US7074761B1, “Peptides and production and use thereof” (Takeda Chemical Ind., Ltd., priority 1996, dated 2006)
